In the METLIN SMRT retention time set (Domingo-Almenara et al. 2019):

Test: gradient 5% acetonitrile 3 min, to 50% in 2 min, to 85% in 15 min, held 3 min, 100 µL/min
Settings: column: Zorbax Extend-C18 2.1 x 50 mm; eluents: water / acetonitrile, 0.1% formic acid
Outline: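 Pure standards were run in mixtures of ~100 molecules by HPLC coupled to a quadrupole time-of-flight mass spectrometer. The column was a Zorbax Extend-C18 (2.1 × 50 mm, 1.8 μm) at 100 μL/min, with water and acetonitrile each containing 0.1% formic acid, in positive and negative ionization mode. Dead and dwell volumes were 40 μL and 900 μL. Retention time was taken from computationally picked adduct peaks, each manually inspected, with data collected over 3 months.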

| SMILES | RP-LC retention time |
| --- | --- |
| CCCCn1cc(S(=O)(=O)Nc2cccc(CC)c2)c2cccnc21 | 1070 s |
| O=C(COc1ccccc1)NCc1c(-c2ccccc2)nc2n1CCS2 | 678 s |
| Cc1cccc(Nc2c(-c3ccc4c(c3)OCO4)nc3cnccn23)c1C | 928 s |
| Cc1ccc(CNC(=O)C2CCN(c3cnc(N4CCCC4)nc3)CC2)cc1C | 716 s |
| COCCCNC(=O)N1CCCC(C)(C(=O)NCc2ccc(C)cc2)C1 (centres undefined) | 720 s |
| CCc1nc(-c2ccc(S(=O)(=O)N3CCC(C(=O)NCc4cccs4)CC3)cc2)no1 | 917 s |
| CCOC(=O)N1CCN(C(=O)CSc2nc(-c3cccc(C)c3)ns2)CC1 | 941 s |
| CCC(C)NC(=O)CSc1nc(N2CCc3ccccc3C2)nc2ccccc12 (centres undefined) | 795 s |
| CCCNC(=O)CN1CCN(Cc2ccc(F)cc2)C1=O | 688 s |
| COc1cccc(-c2noc(CN3C(=O)COc4ccc(C)cc43)n2)c1OC | 981 s |
| Cc1c(C(=O)NC2CC2)cnn1-c1cc(-c2nc(C3CC3)no2)ccn1 | 843 s |
| Cc1cc(S(=O)(=O)N2CCc3c(c(-c4nnc(-c5ccccc5F)o4)nn3C)C2)ccc1F | 988 s |
| CC(C)c1cc(C(=O)Nc2ccc(Cl)cc2)nn1C1CCS(=O)(=O)C1 (centres undefined) | 936 s |
| COc1ccc(NC(=O)c2cnc(N3CCN(C(C)C)CC3)nc2N)cc1 | 593 s |
| CSc1nc2ccc3nc(NC(=O)C4=COCCO4)sc3c2s1 | 905 s |
| CCOc1ccc(NC(=O)c2c(Cl)ccc(Cl)c2OC)cc1 | 913 s |
| O=C(NCc1ccccc1F)C1CCN(C(=O)c2ncn3c2COC(c2ccc(F)cc2)C3)CC1 (centres undefined) | 736 s |
| COc1ccc(NC(=O)Cn2nc3c4ccccc4ncn3c2=O)cc1Cl | 674 s |
| Cc1cc(C)n(-c2ccnc(N3CCC(C(=O)NCC(C)C)CC3)n2)n1 | 768 s |
| CCOc1ccc(N2C=C(C(=O)N3CCCC3)S(=O)(=O)c3ccccc32)cc1 | 828 s |

| SMILES | RP-LC retention time |
| --- | --- |
| CCCCN(CCCNC(=O)C1CCN(S(=O)(=O)N2CCOCC2)CC1)Cc1ccccc1 | 640 s |
| CN(C)c1ncncc1N1CCC(C(=O)NC2CC2)CC1 | 554 s |
| CCCCS(=O)(=O)N1CCC2(CC1)NCCCN=C2Nc1cccc(F)c1 | 677 s |
| Cc1nn(C2CCS(=O)(=O)C2)c(C)c1N1CCN(C(=O)C(C)Oc2ccccc2)CC1 (centres undefined) | 731 s |
| Cc1ccn(-c2ccc(N3CCN(C(=O)c4c(F)cccc4Cl)CC3)nn2)n1 | 752 s |
| CC(Cc1ccco1)NC(=O)c1cc(-c2ccccn2)nc2ccccc12 (centres undefined) | 843 s |
| O=C(CC1CCCC1)NCCC1CCN(C(=O)Nc2ccc(F)cc2F)CC1 | 812 s |
| Cc1ccc(Nc2nc(Cl)nc3ncn(C)c23)c(C)c1 | 791 s |
| [C-]#[N+]/C(C(=O)Nc1ccc(C(F)(F)F)cc1)=C(\C)O | 846 s |
| CC(C)Cn1c(=O)c(N2CCN(S(=O)(=O)c3ccccc3F)CC2)nc2ccncc21 | 743 s |
| COc1ccc(CNC(=O)NCc2nnnn2-c2ccc(F)c(F)c2)cc1OC | 678 s |
| O=C1NC2(CCN(C(=O)Nc3cccc(F)c3)CC2)Oc2ccccc21 | 743 s |
| COc1ccc(NC(=O)C2CCCN(c3ccc(=O)n(-c4ccc(F)cc4)n3)C2)cc1 (centres undefined) | 828 s |
| Cc1cc(CN2CCC(CNC(=O)C(=O)Nc3cccnc3)CC2)c(C)o1 | 681 s |
| CCn1ccc2sc(C)c(C(=O)NC(C)c3ccc(C)cc3C)c2c1=O (centres undefined) | 975 s |
| COc1ccc(N2CCN(C(=O)c3cn4c(n3)CCCC4)CC2)cc1 | 574 s |
| O=C(CCn1nnc2cc(-c3noc(COc4ccc(F)cc4)n3)ccc21)N1CCCC1 | 877 s |
| O=C(COc1ccccc1)N1CCCCC1CCN1CCCCC1 (centres undefined) | 635 s |
| O=C1CN(S(=O)(=O)c2cc(F)ccc2F)C2(CCCCC2)CN1CC1CC1 | 959 s |

Further lines, results first:

| RP-LC retention time | SMILES |
| --- | --- |
| 671 s | COc1ccccc1N1CCN(c2nc3ccccc3cc2-c2noc(C)n2)CC1 |
| 671 s | O=C(NCc1cc(F)ccc1F)c1ccc2ncnc(N3CCCCC3)c2c1 |
| 876 s | Cc1ccc(NC(=O)N2CCC(N3CCN(Cc4ccccn4)C(=O)C3=O)CC2)c(Cl)c1 |
| 960 s | Cc1cccc(NC(=O)Cn2nc(N3CCCC3)c3ccccc3c2=O)c1 |
| 1130 s | COc1ccccc1-c1nnc(-c2cc(S(=O)(=O)N3CCCCCC3)ccc2Cl)o1 |
| 1180 s | Cc1nn(C(=O)C(C)(C)C)c(C)c1S(=O)(=O)N1CCCC1 |
| 590 s | Cc1cccc(CN2CCn3c(nnc3[C@@H]3C[C@@H](O)CN3C)C2)c1 |
| 1020 s | CCC(C)(C)C(=O)NC1CCN(C2=NS(=O)(=O)C(c3ccc(C(C)C)cc3)=C2C)CC1 |
| 1070 s | COc1cc(Cn2nc(C)c3cnn(C(C)(C)C)c3c2=O)cc(OC)c1 |
| 907 s | CC1Oc2ccc(S(=O)(=O)N3CCC(C(=O)NC4CCCCCCC4)CC3)cc2NC1=O (centres undefined) |
| 1050 s | Cc1ccc(N2CC(c3noc(COc4cccc(C)c4)n3)CC2=O)cc1 (centres undefined) |
| 604 s | Fc1ccc(CN2CCC(N3CC4(CCCCC4)C3c3ccncc3)CC2)cc1F (centres undefined) |
| 1040 s | Cn1c(=O)c2c(nc(/C=C/c3cccc(Cl)c3)n2C)n(C)c1=O |
| 699 s | CCCn1c2ccccc2c2cnn(CC(=O)NCCN(C)Cc3ccccc3)c(=O)c21 |
| 605 s | Cc1cnc(C2CC2)n1CCNS(=O)(=O)c1cccc(F)c1 |
| 1180 s | CCc1nc(-c2csc(S(=O)(=O)N3CCC(C(=O)Nc4ccc(Cl)cc4C)CC3)c2)no1 |
| 605 s | COc1nn(C)cc1C(=O)NCCn1nc(-c2cccs2)ccc1=O |
| 589 s | CCn1cc(CCN2CCN(C(=O)c3cccs3)CC2)c2cccnc21 |
| 591 s | O=C(c1ccc2c(c1)OCO2)N1CCCN(c2nnc3ccc(Cl)cn23)CC1 |
| 974 s | Cc1c(C(=O)N2CCSCC2)cnn1-c1cc(-c2nc(C(C)C)no2)ccn1 |
| 540 s | Cc1ccc(Nc2nc(NCc3cccnc3)nc3[nH]ncc23)cc1 |
| 651 s | O=C(NCCCc1ccccc1)C1(CCO)CCN(c2ncccn2)C1 (centres undefined) |
| 675 s | CC1=C(c2ccccc2)S(=O)(=O)N=C1N1CCCN(C(=O)C2CCOC2)CC1 (centres undefined) |
| 776 s | COc1ccc(C2C(C(=O)NCc3ccco3)c3ccccc3C(=O)N2C)cc1 (centres undefined) |
| 654 s | CCOC(=O)CNC(=O)N1CCN(Cc2nc3cccnc3n2-c2ccc(CC)cc2)CC1 |

| RP-LC retention time | SMILES |
| --- | --- |
| 598 s | Cc1noc(C)c1CC(=O)NCC1Cn2cccc2C(=O)N1C (centres undefined) |
| 716 s | CCSc1nc(NC(C)C)c2cnn(CCNC(=O)Cc3c(C)noc3C)c2n1 |
| 899 s | COc1ccc(NC(=O)CN2C(=O)CC(c3cccs3)=Nc3ccccc32)cc1 |
| 793 s | CN1C(C(=O)Nc2ccccn2)=C(O)c2sc(Cl)cc2S1(=O)=O |
| 776 s | O=C(NCc1ccccc1)N1CCC(OCc2nc(C3CC3)no2)CC1 |
| 1160 s | COC1CCC12CCN(S(=O)(=O)c1ccc(C)c(Cl)c1)CC2 (centres undefined) |
| 841 s | Cc1nc(-c2ccc3c(c2)n(CC(=O)NC2CCCCCC2)c(=O)n3C(C)C)no1 |
| 730 s | O=C(Cc1ccc(F)cc1)Nc1cc(-c2cccnc2)no1 |
| 681 s | Cn1nc(C(=O)N2CCCCC2)c2c1CCN(C(=O)CCC(=O)NC1CCCCC1)C2 |
| 674 s | Cc1nc2cc3c(cc2n1CC(=O)NCCOc1ccc(Cl)cc1)OCCO3 |
| 776 s | Cc1nc(CCNC(=O)C2CCN(S(=O)(=O)c3cccc(C(F)(F)F)c3)CC2)cs1 |
| 784 s | O=C(Nc1cc(F)ccc1F)C1CCN(S(=O)(=O)c2cccnc2)CC1 |
| 718 s | COc1ccc(NC(=O)Cn2nc3nc(Nc4ccc(F)cc4)ccn3c2=O)cc1Cl |
| 1050 s | Cc1cc(C)cc(NC(=O)N2CCc3cn(C)c4cccc(c34)C2)c1 |
| 840 s | CCOc1ccc(N2C(=O)CN(CCc3ccccc3F)[C@H]3CS(=O)(=O)C[C@H]32)cc1 |
| 952 s | CCCN1C(=O)C(NC(=O)c2ccc(F)cc2)(C(F)(F)F)C2=C1CC(C)(C)CC2=O (centres undefined) |
| 1230 s | CCCCN(CC)S(=O)(=O)c1ccc(C(=O)Nc2nc3c(s2)COc2ccccc2-3)cc1 |
| 629 s | O=C(NCc1ccco1)C1CCN(c2cnc3nccnc3c2)CC1 |
| 635 s | CC1CCCN(c2ccc(-c3noc(CN4CCN(CC(=O)NC(C)C)CC4)n3)cn2)C1 (centres undefined) |
| 754 s | CN1CCN(CCNC(=O)c2ccc(NC(=O)C3=CSCCO3)cc2)CC1 |
| 1290 s | O=C(CCC1CCCC1)Nc1nc(-c2ccc(Cl)cc2)cs1 |
| 717 s | CCCC(=O)N1CCCC1COc1ccc(C(=O)NC2CC2)cc1 (centres undefined) |
| 830 s | Cc1ccc(C)c(NC(=O)N2C[C@H](c3nc(-c4ccncc4)no3)[C@@H](C)C2)c1 |
| 825 s | NC(=O)c1oc2ccccc2c1NC(=O)C1CCCCN1S(=O)(=O)c1cccs1 (centres undefined) |
| 804 s | CCNC(=O)N1CCCC(c2cccc(C(=O)NCc3ccc(F)cc3F)c2)C1 (centres undefined) |
